System: human sensory neurons
Assay: Effect on neurite growth in co-culture of human sensory neurons and keratinocytes
Assay type: cell-based
Conditions: NGF at 50 ng/ml, 6 days, vs control medium, p<0.05
Description: Sensory neurons are derived from iPS cells (induced Pluripotent Stem cells) which are themselves obtained from human fibroblasts. The iPSs were seeded into six-well plates coated with a thin layer of Matrigel® (Corning) in a proportion of 250 000 cells per well in a differentiation medium consisting of DMEM-F12 (Panbiotech) supplemented with 10% of Knockout Serum Replacement (KSR, Life technologies), 5 μM of CHIR 99021 (Tocris), 0.1 μM of retinoic acid (Sigma), 1 μg/ml of EPO (Erythropoietin; Peprotech), a cocktail of central differentiation pathway inhibitors and 1% of PS antibiotics (Penicilin-Streptomycin; Panbiotech). The cells were maintained in culture for 6 days at 37° C. and 5% CO2. The culture medium was changed every 2 days. Under these culture conditions, the iPSs differentiate into human sensory neurons.
At this stage, the cells were dissociated using accutase (Sigma Aldrich) for 10 minutes at 37° C. The reaction was stopped by adding culture medium. The cell suspension was centrifuged for 5 minutes at 1200 rpm. […]
Twenty photographs per culture well were taken with the automatic microscope (InCell 2000; GE Healthcare) at a ×20 magnification and the cell bodies of the sensory neurons were counted. […]

NGF: reference molecule; nerve growth factor, naturally present in the epithelium, known to stimulate neurite extension in vitro
increase in the length of the projections of the human sensory neurons: +22.8%
